Data taken from article PMC10761660, “Preclinical evaluation of an ^18F-labeled N^ε-acryloyllysine piperazide for covalent targeting of transglutaminase 2” (EJNMMI Radiopharmacy and Chemistry, 2024).

Experiment: Ex vivo biodistribution in normal mice
Set-up: species or system mice (Rj:NMRI-Foxn1 nu/nu)
Details: i.v., control conditions
Method: For biodistribution studies in normal mice, [^18F]7b (0.57 ± 0.03 MBq corresponding to 27 ± 1 pmol in 0.2 mL 0.9% NaCl with a maximum of 10% ethanol (v/v)) was injected i.v. into nude mice (Rj:NMRI-Foxn1 nu/nu, Janvier Laboratories, Le Genest-Saint-Isle, France, body weight 27.7 ± 3.4 g) without (control conditions) or with co-injection of ketoconazole (3 mg/animal). A stock solution of ketoconazole (141 mM) was prepared in ethanol/Tween-80 (1:1, v/v) by shaking over night at 45 °C. This solution was diluted with 0.9% NaCl (1:4, v/v) prior injection. The animals were sacrificed at 5 and 60 min p.i. by CO2 inhalation and cervical dislocation. Organs and tissues of interest were excised, weighed, and radioactivity was determined using the Wizard™3’’ gamma counter. Activity in selected organs and tissues was expressed as % injected dose per weight (% ID/g) or % injected dose (% ID).

C=CC(=O)NCCCCC(NC(=O)Cc1ccccc1)C(=O)N1CCN(c2cccc([18F])n2)CC1 (centres unmarked) [[^18F]7b]
activity uptake kidneys (5 min p.i.): 7.9 %ID/g | activity uptake liver (5 min p.i.): 15.7 %ID/g | activity uptake femur (60 min p.i.): 3.9 %ID/g | injected activity in intestinal content (60 min p.i.): 50 %ID | injected activity in urine (60 min p.i.): 19 %ID
